The subject of one assay is OVA. More on the design: species or system C57BL/6 mice. Conditions: mouse, in vivo.
Assay [1] has as its system bone marrow dendritic cells. In kind it is cell-based, C57BL/6 mice.
The test system of assay [2] is IL-12 secretion from dendritic cells. Format: cell-based, C57BL/6 mice.

Data on 2 substances can be found in patent US20080248094A1 (NATIONAL RESEARCH COUNCIL OF CANADA, priority 2001, published 2008).

Where “and” joins values, the source holds several entries; their conditions need not be identical. Identical values can stand only once.

In the case of “OVA, no adjuvant: 15 μg ovalbumin (OVA) with no adjuvant”, in the assay with OVA, the “anti OVA antibody titres” value is listed as <42.

For lipopolysaccharide [LPS], the “MTT (Absorbance)” value in assay [1] is 0.564 Absorbance and 0.562 Absorbance. Besides, in assay [2], the IL-12 was 187.9 ng/mL and 182.7 ng/mL.
